In patent US20160145247A1, “Aminomethyl-Biaryl Derivatives Complement Factor D inhibitors and uses thereof” (NOVARTIS AG, priority 2013, published 2016):

Biological target: T1, factor D (Homo sapiens, UniProt P00746)
T1 construct: made in house; host or cells: E. coli
Experiment: factor D inhibition assay of Biological Example 2
Format: biochemical

T1 sequence (P00746 26-253): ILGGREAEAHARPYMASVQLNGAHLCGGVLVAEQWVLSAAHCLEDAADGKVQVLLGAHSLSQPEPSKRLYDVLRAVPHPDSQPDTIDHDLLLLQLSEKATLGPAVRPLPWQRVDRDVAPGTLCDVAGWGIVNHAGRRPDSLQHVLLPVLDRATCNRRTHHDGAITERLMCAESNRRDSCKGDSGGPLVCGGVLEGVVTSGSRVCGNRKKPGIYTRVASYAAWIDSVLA

Row | IC50 [µM] | Structure (SMILES)
1 | 0.013 | NCc1cc(F)cc(-c2nc(C(=O)Nc3ccccc3CC(=O)O)c(C3CC3)s2)c1 [Example 35-B, 2-(2-(2-(3-(Aminomethyl)-5-fluorophenyl)-5-cyclopropylthiazole-4-carboxamido)phenyl)acetic acid]
2 | 0.036 | CCc1sc(-c2cc(F)cc(CN)c2)nc1C(=O)Nc1ccccc1CC(=O)O [Example 36-C, 2-(2-(2-(3-(Aminomethyl)-5-fluorophenyl)-5-ethylthiazole-4-carboxamido)phenyl)acetic acid]
3 | 0.041 | NCc1cccc(-c2cccc(C(=O)Nc3ccccc3CC(=O)O)c2)c1F [Example 37, 2-(2-(3′-(Aminomethyl)-2′-fluoro-[1,1′-biphenyl]-3-ylcarboxamido)phenyl)acetic acid]
4 | 14.3 | NCc1cccc(-c2cc(C(=O)Nc3ccccc3CC(=O)O)ccn2)c1 [Example 38, 2-(2-(2-(3-(Aminomethyl)phenyl)isonicotinamido)phenyl)acetic acid]
5 | 40.5 | NCc1cccc(-c2ccnc(C(=O)Nc3ccccc3CC(=O)O)c2)c1 [Example 39, 2-(2-(4-(3-(Aminomethyl)phenyl)picolinamido)phenyl)acetic acid]
6 | 12.8 | NCc1cccc(-c2cncc(C(=O)Nc3ccccc3CC(=O)O)c2)c1 [Example 40, 2-(2-(5-(3-(Aminomethyl)phenyl)nicotinamido)phenyl)acetic acid]
7 | 0.074 | NCc1cccc(-c2cc(Cl)cc(C(=O)Nc3ccccc3CC(=O)O)n2)c1 [Example 41, 2-(2-(6-(3-(Aminomethyl)phenyl)-4-chloropicolinamido)phenyl)acetic acid]
8 | 0.013 | NCc1cccc(-c2cc(C(=O)Nc3ccccc3CC(=O)O)nc(-c3cccc(CN)c3)c2)c1 [Example 42, 2-(2-(4,6-bis(3-(Aminomethyl)phenyl)picolinamido)phenyl)acetic acid]
9 | 1.13 | NCc1cccc(-c2nc(C(=O)Nc3ccccc3CC(=O)O)c[nH]2)c1 [Example 43, 2-(2-(2-(3-(Aminomethyl)phenyl)-1H-imidazole-4-carboxamido)phenyl)acetic acid]
10 | 0.009 | NCc1cccc(-c2cc(N3CCOCC3)cc(C(=O)Nc3ccccc3CC(=O)O)n2)c1 [Example 44, 2-(2-(6-(3-(Aminomethyl)phenyl)-4-morpholinopicolinamido)phenyl)acetic acid]
11 | 0.012 | NCc1cccc(-c2cc(NC[C@@H]3CCCO3)cc(C(=O)Nc3ccccc3CC(=O)O)n2)c1 [Example 45, (S)-2-(2-(6-(3-(Aminomethyl)phenyl)-4-(((tetrahydrofuran-2-yl)methyl)amino)picolinamido)phenyl)acetic acid]
12 | 0.006 | CNc1cc(C(=O)Nc2ccccc2CC(=O)O)nc(-c2cccc(CN)c2)c1 [Example 46, 2-(2-(6-(3-(aminomethyl)phenyl)-4-(methylamino)picolinamido)phenyl)acetic acid]
13 | 1.93 | NCc1cccc(-c2c[nH]c(C(=O)Nc3ccccc3CC(=O)O)n2)c1 [Example 47, 2-(2-(4-(3-(Aminomethyl)phenyl)-1H-imidazole-2-carboxamido)phenyl)acetic acid]
14 | 2.89 | NCc1cccc(-c2cccc(S(=O)(=O)Nc3ccccc3CC(=O)O)c2)c1 [Example 48, 2-(2-(3′-(Aminomethyl)-[1,1′-biphenyl]-3-ylsulfonamido)phenyl)acetic acid]
15 | 2.27 | NCc1cc(F)cc(-c2cccc(S(=O)(=O)Nc3ccccc3CC(=O)O)c2)c1 [Example 49, 2-(2-(3′-(aminomethyl)-5′-fluoro-[1,1′-biphenyl]-3-ylsulfonamido)phenyl)acetic acid]
16 | 0.002 | NCc1cccc(-c2cc(NC3CC3)cc(C(=O)Nc3ccccc3CC(=O)O)n2)c1 [Example 50, 2-(2-(6-(3-(aminomethyl)phenyl)-4-(cyclopropylamino)picolinamido)phenyl)acetic acid]
17 | 0.006 | NCc1cccc(-c2cc(N3CCN(c4ccccc4)CC3)cc(C(=O)Nc3ccccc3CC(=O)O)n2)c1 [Example 51, 2-(2-(6-(3-(Aminomethyl)phenyl)-4-(4-phenylpiperazin-1-yl)picolinamido)phenyl)acetic acid]
18 | 0.007 | NCc1cccc(-c2cc(-c3ccccc3)cc(C(=O)Nc3ccccc3CC(=O)O)n2)c1 [Example 52, 2-(2-(6-(3-(Aminomethyl)phenyl)-4-phenylpicolinamido)phenyl)acetic acid]
19 | 0.003 | NCc1cccc(-c2cc(NCc3ccccc3)cc(C(=O)Nc3ccccc3CC(=O)O)n2)c1 [Example 53, 2-(2-(6-(3-(Aminomethyl)phenyl)-4-(benzylamino)picolinamido)phenyl)acetic acid]
20 | 0.003 | NCc1cccc(-c2cc(NCC(F)(F)F)cc(C(=O)Nc3ccccc3CC(=O)O)n2)c1 [Example 54, 2-(2-(6-(3-(Aminomethyl)phenyl)-4-((2,2,2-trifluoroethyl)amino)picolinamido)phenyl)acetic acid]
21 | 0.013 | NCc1cccc(-c2cc(O)cc(C(=O)Nc3ccccc3CC(=O)O)n2)c1 [Example 55, 2-(2-(6-(3-(Aminomethyl)phenyl)-4-hydroxypicolinamido)phenyl)acetic acid]
22 | 0.107 | NCc1cccc(-c2ccc(Cl)c(C(=O)Nc3ccccc3CC(=O)O)n2)c1 [Example 56-A, 2-(2-(6-(3-(Aminomethyl)phenyl)-3-chloropicolinamido)phenyl)acetic acid]
23 | 0.117 | NCc1cccc(-c2ccc(-c3cccc(CN)c3)c(C(=O)Nc3ccccc3CC(=O)O)n2)c1 [Example 56-B, 2-(2-(3,6-bis(3-(Aminomethyl)phenyl)picolinamido)phenyl)acetic acid]
24 | 0.095 | NCc1cccc(-c2cc(O)cc(C(=O)Nc3ccccc3CC(=O)O)c2)c1 [Example 59-C, 2-(2-(3′-(Aminomethyl)-5-hydroxy-[1,1′-biphenyl]-3-ylcarboxamido)phenyl)acetic acid]
25 | 0.047 | NCc1cc(F)cc(-c2cc(O)cc(C(=O)Nc3ccccc3CC(=O)O)c2)c1 [Example 60, 2-(2-(3′-(Aminomethyl)-5′-fluoro-5-hydroxy-[1,1′-biphenyl]-3-ylcarboxamido)phenyl)acetic acid]
26 | 0.032 | NCc1cccc(-c2cc(OCc3ncccn3)cc(C(=O)Nc3ccccc3CC(=O)O)c2)c1 [Example 61-B, 2-(2-(3′-(Aminomethyl)-5-(pyrimidin-2-ylmethoxy)-[1,1′-biphenyl]-3-ylcarboxamido)phenyl)acetic acid]
27 | 0.054 | NCc1cccc(-c2cc(OCc3ccncc3)cc(C(=O)Nc3ccccc3CC(=O)O)c2)c1 [Example 62, 2-(2-(3′-(Aminomethyl)-5-(pyridin-4-ylmethoxy)-[1,1′-biphenyl]-3-ylcarboxamido)phenyl)acetic acid]
28 | 0.017 | NCc1cc(F)cc(-c2cc(OCc3ccncc3)cc(C(=O)Nc3ccccc3CC(=O)O)c2)c1 [Example 65, 2-(2-(3′-(Aminomethyl)-5′-fluoro-5-(pyridin-4-ylmethoxy)-[1,1′-biphenyl]-3-ylcarboxamido)phenyl)acetic acid]
29 | 0.033 | Cn1ccc(COc2cc(C(=O)Nc3ccccc3CC(=O)O)cc(-c3cccc(CN)c3)c2)n1 [Example 66, 2-(2-(3′-(Aminomethyl)-5-((1-methyl-1H-pyrazol-3-yl)methoxy)-[1,1′-biphenyl]-3-ylcarboxamido)phenyl)acetic acid]
